What is called IC50 is the midpoint of a concentration-inhibition curve.

Molecules are shown by their SMILES. Bounds are passed on as bounds.

The test system of experiment [1] is phospho-ERK in GP2D (KRAS-G12D) cells. Briefly: pERK In Cell Western (ICW) assay (Method B), GP2D. Type of experiment: cell-based. The method, boiled down: (§1)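 3 h cpd, 37 °C, ½-log 9-pt dilution; AGS 5,000 cells/well, GP2D/SW620 10,000 cells/well, plated overnight. PFA fix, Triton perm, anti-pERK o/n 4 °C, IRDye 800 secondary + DRAQ5. pERK/DRAQ5 as % blank; IC50 4-PL.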

In experiment [2] the target is GST-tagged KRAS-G12D (2-169) (Homo sapiens, UniProt P01116, G12D). The experiment is described as follows: Nucleotide exchange assay (NEA), SOS-mediated, HTRF, KRAS G12D. Type of experiment: biochemical. The note with it: Table 4; IC50 extracted at 30 min; 20 nM SOScat; read-out: NEA G12D IC50. In a few lines:
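Compound preincubated 1 h at RT with 0.25 nM GST-KRAS-G12D (2-169) and anti-GST Tb donor, then 20 nM SOS1cat (564-1049) and 150 nM GTP-DY-647P1 added; pH 7.3 HEPES buffer with MgCl2 and DTT. HTRF monitored at RT; % inhibition versus DMSO and no-SOS blank, 4-parameter IC50 taken at 30 min.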
A general note: TR-FRET usually uses a lanthanide donor and a delayed reading to cut background.

Experiment [3] concerns the target GST-tagged KRAS-G12V (2-169) (Homo sapiens, UniProt P01116, G12V). The experiment is described as follows: Nucleotide exchange assay (NEA), SOS-mediated, HTRF, KRAS G12V. The class given is biochemical. The note with it: Table 4; IC50 extracted at 90 min; 80 nM SOS. The method, boiled down:
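GST-KRAS-G12V (2-169), 0.25 nM, pre-incubated 1 h at RT with compound, then SOS1cat (564-1049) 80 nM and GTP-DY-647P1 150 nM added in HEPES pH 7.3 buffer with MgCl2 and DTT. HTRF via anti-GST Tb cryptate read over 90 min; IC50 from 4-parameter fit at 90 min, blanked to no-SOS reactions.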

The test system of experiment [4] is phospho-ERK in SW620 (KRAS-G12V) cells. Briefly: pERK In Cell Western (ICW) assay (Method B), SW620. Type of experiment: cell-based. In a few lines:
as §1

Setting [5] is: Homo sapiens, SW-620, 3 h, Table 4.

GST-tagged KRAS-G12D (2-169), sequence (P01116 2-169 isoform P01116-2 G12D): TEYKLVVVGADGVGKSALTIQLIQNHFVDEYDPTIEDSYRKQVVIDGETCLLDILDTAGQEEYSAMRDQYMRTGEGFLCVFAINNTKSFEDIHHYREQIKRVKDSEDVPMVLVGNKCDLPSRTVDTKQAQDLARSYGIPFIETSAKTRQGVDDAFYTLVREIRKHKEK
GST-tagged KRAS-G12V (2-169), sequence (P01116 2-169 isoform P01116-2 G12V): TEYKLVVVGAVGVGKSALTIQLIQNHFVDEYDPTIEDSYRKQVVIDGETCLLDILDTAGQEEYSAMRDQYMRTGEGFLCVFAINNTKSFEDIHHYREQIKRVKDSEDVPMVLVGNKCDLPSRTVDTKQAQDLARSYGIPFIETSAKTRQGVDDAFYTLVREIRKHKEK

`N#Cc1c(N)sc2c1C1(CC2)CN(c2nc(OC[C@@]34CCCN3C[C@H](F)C4)nc(N3CCc4n[nH]c(N)c4C3)n2)C1` [Compound 35, 2-amino-1′-[4-(3-amino-2,4,6,7-tetrahydropyrazolo[4,3-c]pyridin-5-yl)-6-[[(2R,8S)-2-fluoro-1,2,3,5,6,7-hexahydropyrrolizin-8-yl]methoxy]-1,3,5-triazin-2-yl]spiro[5,6-dihydrocyclopenta[b]thiophene-4,3′-azetidine]-3-carbonitrile]: the IC50 in experiment [1] (GP2d, 3 h, Table 4) is 1000 to 20000 nM; in experiment [2] it was 100 to 1000 nM; in experiment [3], 1000 to 20000 nM; in experiment [4] (setting [5]) it was at least 20000 nM.
On to `CCN(c1nc(OCCN2CCCCC2)nc(N2CC3(C2)SCc2sc(N)c(C#N)c23)n1)[C@H](C)c1cccnc1N` [Compound 178, 2-amino-1′-[4-[[(1R)-1-(2-amino-3-pyridyl)ethyl]-ethyl-amino]-6-[2-(1-piperidyl)ethoxy]-1,3,5-triazin-2-yl]spiro[6H-thieno[3,4-b]thiophene-4,3′-azetidine]-3-carbonitrile], for which the IC50 is 100 to 1000 nM in experiment [1] (GP2d, 3 h, Table 4); 10 to 100 nM in experiment [2]; under 10 nM in experiment [3]; 10 to 100 nM in experiment [4] (setting [5]).
For the compound `CC(c1cccnc1N)N(C)c1nc(OC[C@@]23CCCN2C[C@H](F)C3)nc(N2CC3(CCc4sc(N)c(C#N)c43)C2)n1` (single isomer, unassigned) [Compound 100B, 2-amino-1′-[4-[[(1*)-1-(2-amino-3-pyridyl)ethyl]-methyl-amino]-6-[[(2R,8S)-2-fluoro-1,2,3,5,6,7-hexahydropyrrolizin-8-yl]methoxy]-1,3,5-triazin-2-yl]spiro[5,6-dihydrocyclopenta[b]thiophene-4,3′-azetidine]-3-carbonitrile], the IC50 in experiment [1] (Table 4, 3 hours) is 100 to 1000 nM; in experiment [2], 10 to 100 nM; in experiment [3], under 10 nM; in experiment [4] (Table 4, 3 hours), 10 to 100 nM.
For the compound `CCN(c1nc(OC[C@@]23CCCN2C[C@H](F)C3)nc(N2CC3(CCc4sc(N)c(C#N)c43)C2=O)n1)[C@H](C)c1cccnc1N` (stereo partly drawn) [Compound 201, 2-amino-1′-[4-[[(1R)-1-(2-amino-3-pyridyl)ethyl]-ethyl-amino]-6-[[(2R,8S)-2-fluoro-1,2,3,5,6,7-hexahydropyrrolizin-8-yl]methoxy]-1,3,5-triazin-2-yl]-2′-oxo-spiro[5,6-dihydrocyclopenta[b]thiophene-4,3′-azetidine]-3-carbonitrile], the IC50 was 10 to 100 nM in experiment [1] (GP2d, 3 h, Table 4); under 10 nM in experiment [2]; under 10 nM in experiment [3]; 10 to 100 nM in experiment [4] (setting [5]).
Regarding `N#Cc1c(N)sc2c1C1(CC2)CN(c2nc(OC[C@@]34CCCN3C[C@H](F)C4)nc(N3CCCC4(C3)NC(=O)NC4=O)n2)C1` (stereo partly drawn) [Compound 45, 2-amino-1′-[4-(2,4-dioxo-1,3,9-triazaspiro[4.5]decan-9-yl)-6-[[(2R,8S)-2-fluoro-1,2,3,5,6,7-hexahydropyrrolizin-8-yl]methoxy]-1,3,5-triazin-2-yl]spiro[5,6-dihydrocyclopenta[b]thiophene-4,3′-azetidine]-3-carbonitrile], the half-inhibitory concentration (IC50) was 100 to 1000 nM in experiment [1] (GP2d, 3 h, Table 4); under 10 nM in experiment [2]; under 10 nM in experiment [3]; 1000 to 20000 nM in experiment [4] (setting [5]).
Consider `C[C@]1(O)CN(c2nc(OC[C@@]34CCCN3C[C@H](F)C4)nc(N3CC4(CCc5sc(N)c(C#N)c54)C3)n2)CC[C@@H]1O` (racemic) [Compound 62, 2-amino-1′-[4-[rac-(3S,4S)-3,4-dihydroxy-3-methyl-1-piperidyl]-6-[[(2R,8S)-2-fluoro-1,2,3,5,6,7-hexahydropyrrolizin-8-yl]methoxy]-1,3,5-triazin-2-yl]spiro[5,6-dihydrocyclopenta[b]thiophene-4,3′-azetidine]-3-carbonitrile], for which the half-inhibitory concentration (IC50) is at least 20000 nM in experiment [1] (GP2d, 3 h, Table 4); 100 to 1000 nM in experiment [2]; 100 to 1000 nM in experiment [3]; at least 20000 nM in experiment [4] (setting [5]).
`CCN(c1nc(OC[C@@]23CCCN2C[C@H](F)C3)nc(N2CC3(C2)SCc2sc(N)c(C#N)c23)n1)[C@H](C)c1cccnc1N` [Compound 139A, 2-amino-1′-[4-[[(1*)-1-(2-amino-3-pyridyl)ethyl]-ethyl-amino]-6-[[(2R,8S)-2-fluoro-1,2,3,5,6,7-hexahydropyrrolizin-8-yl]methoxy]-1,3,5-triazin-2-yl]spiro[6H-thieno[3,4-b]thiophene-4,3′-azetidine]-3-carbonitrile]: the IC50 in experiment [1] (GP2d, 3 h, Table 4) was under 10 nM; in experiment [2], under 10 nM; in experiment [3], under 10 nM; in experiment [4] (setting [5]), under 10 nM.
Take `N#Cc1c(N)sc2c1C1(CC2)CN(c2nc(OC[C@@]34CCCN3C[C@H](F)C4)nc(N3CCCOCC3)n2)C1` [Compound 89, 2-amino-1′-[4-[[(2R,8S)-2-fluoro-1,2,3,5,6,7-hexahydropyrrolizin-8-yl]methoxy]-6-(1,4-oxazepan-4-yl)-1,3,5-triazin-2-yl]spiro[5,6-dihydrocyclopenta[b]thiophene-4,3′-azetidine]-3-carbonitrile]: the IC50 is 100 to 1000 nM in experiment [1] (GP2d, 3 h, Table 4); 10 to 100 nM in experiment [2]; under 10 nM in experiment [3]; 100 to 1000 nM in experiment [4] (setting [5]).
Consider `CC(c1cccnc1N)N(C)c1nc(OCCc2nccn2C)nc(N2CC3(CCc4sc(N)c(C#N)c43)C2)n1` (stereo not drawn) [Compound 117, 2-amino-1′-[4-[1-(2-amino-3-pyridyl)ethyl-methyl-amino]-6-[2-(1-methylimidazol-2-yl)ethoxy]-1,3,5-triazin-2-yl]spiro[5,6-dihydrocyclopenta[b]thiophene-4,3′-azetidine]-3-carbonitrile], for which the IC50 in experiment [1] (GP2d, 3 h, Table 4) lay within 100 to 1000 nM; in experiment [2], 100 to 1000 nM; in experiment [3], 10 to 100 nM; in experiment [4] (setting [5]), 100 to 1000 nM.
For the compound `CC(c1cccnc1N)N(C)c1nc(OCC2(CN3CCOCC3)CC2)nc(N2CC3(CCc4sc(N)c(C#N)c43)C2)n1` (stereo not drawn) [Compound 97, 2-amino-1′-[4-[1-(2-amino-3-pyridyl)ethyl-methyl-amino]-6-[[1-(morpholinomethyl)cyclopropyl]methoxy]-1,3,5-triazin-2-yl]spiro[5,6-dihydrocyclopenta[b]thiophene-4,3′-azetidine]-3-carbonitrile], the IC50 in experiment [1] (GP2d, 3 h, Table 4) was 1000 to 20000 nM; in experiment [2], 10 to 100 nM; in experiment [3] it was under 10 nM; in experiment [4] (setting [5]), 100 to 1000 nM.
Take `N#Cc1c(N)sc2c1C1(CN(c3nc(OC[C@@]45CCCN4C[C@H](F)C5)nc(N4CC(=O)Nc5ncccc5C4)n3)C1)SC2` [Compound 189, 2-amino-1′-[4-[[(2R,8S)-2-fluoro-1,2,3,5,6,7-hexahydropyrrolizin-8-yl]methoxy]-6-(2-oxo-3,5-dihydro-1H-pyrido[2,3-e][1,4]diazepin-4-yl)-1,3,5-triazin-2-yl]spiro[6H-thieno[3,4-b]thiophene-4,3′-azetidine]-3-carbonitrile]: the IC50 in experiment [1] (GP2d, 3 h, Table 4) fell in the range of 1000 to 20000 nM; in experiment [2], 100 to 1000 nM; in experiment [3], 10 to 100 nM; in experiment [4] (setting [5]), 1000 to 20000 nM.
Consider `C[C@@]1(O)CCCN(c2nc(OCC3(CN4CCOCC4)CC3)nc(N3CC4(C3)SCc3sc(N)c(C#N)c34)n2)C1` [Compound 73, 2-amino-1′-[4-[(3R)-3-hydroxy-3-methyl-1-piperidyl]-6-[[1-(morpholinomethyl)cyclopropyl]methoxy]-1,3,5-triazin-2-yl]spiro[6H-thieno[2,3-c]thiophene-4,3′-azetidine]-3-carbonitrile], for which the IC50 is 10 to 100 nM in experiment [1] (GP2d, 3 h, Table 4); under 10 nM in experiment [2]; under 10 nM in experiment [3]; 10 to 100 nM in experiment [4] (setting [5]).

Values taken from patent US12421254B2, “KRAS modulators and uses thereof” (Quanta Therapeutics, Inc., priority 2023, dated 2025).
